Source: PubChem BioAssay (NCI)
Values joined by “and” are separate entries in the source; they are usually repeats but may differ in a detail not shown here. Equal entries are not always repeated.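 Five compound concentrations were applied to cells in 96-well plates for 48 hours; endpoints were derived by simple linear interpolation of the resulting dose-response curve. GI50 is the concentration that inhibits growth by half. Definition used: TGI = concentration required for complete inhibition of growth.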

Key:
Assay in all cases: NCI tumour cell line growth inhibition, 48 h
[1] = tested on: M14 melanoma
[2] = tested on: HOP-92 NSCLC
[3] = tested on: NCI-H23 lung
[4] = tested on: HT29 colon
[5] = tested on: NCI/ADR-RES ovarian
[6] = tested on: SF-295 CNS
[7] = tested on: OVCAR-3 ovarian
[8] = tested on: SF-539 CNS
[9] = tested on: T-47D breast
[10] = tested on: SK-MEL-28 melanoma

| SMILES | GI50 [1] | TGI [1] | GI50 [2] | TGI [2] | GI50 [3] | TGI [3] | GI50 [4] | TGI [4] | GI50 [5] | TGI [5] | GI50 [6] | TGI [6] | GI50 [7] | TGI [7] | GI50 [8] | TGI [8] | GI50 [9] | TGI [9] | GI50 [10] | TGI [10] |
| --- | --- | --- | --- | --- | --- | --- | --- | --- | --- | --- | --- | --- | --- | --- | --- | --- | --- | --- | --- | --- |
| CCN1CCN(CCNc2nccc(-c3c(-c4cccc(O)c4)nc4sccn34)n2)S1(=O)=O | 0.168 µM and 0.142 µM | 19.8 µM and 10.8 µM | 6.2 µM and 0.671 µM | 32.5 µM and 69.9 µM | 12.4 µM | 32.5 µM and 51.9 µM | 4.53 µM and 2.2 µM | 32.5 µM and 31.7 µM | 23.3 µM and 26.5 µM | 32.5 µM and 86.1 µM | 14.2 µM and 16.4 µM | 32.5 µM and 48.8 µM | 20.1 µM and 21.4 µM | 32.5 µM and > 100 µM | 28.6 µM and 21.3 µM | 32.5 µM and 78.5 µM | 22.1 µM and 11 µM | 32.5 µM and 53 µM | 0.181 µM and 0.13 µM | 32.5 µM and > 100 µM |
| O=C(Nc1cccnc1)c1cccs1 | 0.506 µM | > 100 µM | > 100 µM | > 100 µM | 4.84 µM | > 100 µM | 2.39 µM | > 100 µM | 43.8 µM | > 100 µM | 5.04 µM | > 100 µM | 1.19 µM | > 100 µM | 4.51 µM | > 100 µM | > 100 µM | > 100 µM | 0.677 µM | > 100 µM |
| C[C@H]1O[C@@H](O[C@H]2[C@@H](O)C[C@H](O[C@H]3[C@@H](O)C[C@H](O[C@H]4CC[C@]5(C)C6C[C@@H](O)[C@]7(C)[C@@H](C8=CC(=O)OC8)CC[C@]7(O)C6CC[C@@H]5C4)O[C@@H]3C)O[C@@H]2C)C[C@H](O)[C@@H]1O (stereo not given in full) | 0.107 µM | 0.241 µM | 0.112 µM | 0.529 µM | 0.0251 µM | 0.112 µM | 0.0893 µM | 0.293 µM | 0.0552 µM | 0.147 µM | 0.0595 µM | 0.233 µM | 0.0241 µM | 0.0792 µM | 0.0648 µM | 0.139 µM | 0.0833 µM | 0.252 µM | 0.104 µM | 0.222 µM |
| C=C1C(=O)O[C@H]2[C@H]1CC/C(COC(=O)NCc1c[nH]c3ccc(OC)cc13)=C\CC[C@@]1(C)O[C@@H]21 | 1.36 µM | 3.4 µM | 1.79 µM | 3.44 µM | 3 µM | 9.33 µM | 1.02 µM | 2.71 µM | 7.87 µM | 28.8 µM | 10.4 µM | 22.3 µM | 0.695 µM | 2.1 µM | 1.53 µM | 3.02 µM | 1.89 µM | 4.38 µM | 1.52 µM | 3.34 µM |
